Results reported in the kinase profiling compilation of Christmann-Franck et al. (2016).

Columns and labels:
Assay in all cases: radiometric filter-binding kinase assay, Kinase HotSpot
Conditions in all cases: compound 0.5 µM; ATP 10 µM
[1] = target: ADRBK1 (human) (UniProt P25098)
[2] = target: AXL (human) (UniProt P30530)
[3] = target: BMX (human) (UniProt P51813)
[4] = target: BRSK1 (human) (UniProt Q8TDC3)
[5] = target: BTK (human) (UniProt Q06187)
[6] = target: CAMKK1 (human) (UniProt Q8N5S9)
[7] = target: CDK1 CCNB1 (human) (UniProt P06493+P14635)
[8] = target: CHEK2 (human) (UniProt O96017)
[9] = target: CSNK1G2 (human) (UniProt P78368)
[10] = target: DAPK3 (human) (UniProt O43293)
[11] = target: DDR2 (human) (UniProt Q16832)
[12] = target: DYRK2 (human) (UniProt Q92630)
[13] = target: DYRK3 (human) (UniProt O43781)
[14] = target: DYRK4 (human) (UniProt Q9NR20)
[15] = target: EPHA1 (human) (UniProt P21709)
[16] = target: EPHA7 (human) (UniProt Q15375)
[17] = target: FRK (human) (UniProt P42685)
[18] = target: GRK5 (human) (UniProt P34947)
[19] = target: GRK7 (human) (UniProt Q8WTQ7)
[20] = target: INSRR (human) (UniProt P14616)
[21] = target: LTK (human) (UniProt P29376)
[22] = target: MAP2K1 (human) (UniProt Q02750)
[23] = target: MAP3K14 (human) (UniProt Q99558)
[24] = target: MAP3K5 (human) (UniProt Q99683)
[25] = target: MAP4K2 (human) (UniProt Q12851)
[26] = target: MARK2 (human) (UniProt Q7KZI7)
[27] = target: NEK2 (human) (UniProt P51955)
[28] = target: PHKG1 (human) (UniProt Q16816)
[29] = target: PRKCB2 (human) (UniProt P05771)
[30] = target: PRKCD (human) (UniProt Q05655)
[31] = target: PRKCZ (human) (UniProt Q05513)
[32] = target: PRKX (human) (UniProt P51817)
[33] = target: SRPK2 (human) (UniProt P78362)
[34] = target: SRPK3 (human) (UniProt Q9UPE1)
[35] = target: STK33 (human) (UniProt Q9BYT3)
[36] = target: STK39 (human) (UniProt Q9UEW8)
[37] = target: TEK (human) (UniProt Q02763)
[38] = target: TXK (human) (UniProt P42681)
[39] = target: VRK1 (human) (UniProt Q99986)
[40] = target: EGFR (human) (UniProt P00533)

Chain of DDR2 (human) (Q16832 whole entry, looked up): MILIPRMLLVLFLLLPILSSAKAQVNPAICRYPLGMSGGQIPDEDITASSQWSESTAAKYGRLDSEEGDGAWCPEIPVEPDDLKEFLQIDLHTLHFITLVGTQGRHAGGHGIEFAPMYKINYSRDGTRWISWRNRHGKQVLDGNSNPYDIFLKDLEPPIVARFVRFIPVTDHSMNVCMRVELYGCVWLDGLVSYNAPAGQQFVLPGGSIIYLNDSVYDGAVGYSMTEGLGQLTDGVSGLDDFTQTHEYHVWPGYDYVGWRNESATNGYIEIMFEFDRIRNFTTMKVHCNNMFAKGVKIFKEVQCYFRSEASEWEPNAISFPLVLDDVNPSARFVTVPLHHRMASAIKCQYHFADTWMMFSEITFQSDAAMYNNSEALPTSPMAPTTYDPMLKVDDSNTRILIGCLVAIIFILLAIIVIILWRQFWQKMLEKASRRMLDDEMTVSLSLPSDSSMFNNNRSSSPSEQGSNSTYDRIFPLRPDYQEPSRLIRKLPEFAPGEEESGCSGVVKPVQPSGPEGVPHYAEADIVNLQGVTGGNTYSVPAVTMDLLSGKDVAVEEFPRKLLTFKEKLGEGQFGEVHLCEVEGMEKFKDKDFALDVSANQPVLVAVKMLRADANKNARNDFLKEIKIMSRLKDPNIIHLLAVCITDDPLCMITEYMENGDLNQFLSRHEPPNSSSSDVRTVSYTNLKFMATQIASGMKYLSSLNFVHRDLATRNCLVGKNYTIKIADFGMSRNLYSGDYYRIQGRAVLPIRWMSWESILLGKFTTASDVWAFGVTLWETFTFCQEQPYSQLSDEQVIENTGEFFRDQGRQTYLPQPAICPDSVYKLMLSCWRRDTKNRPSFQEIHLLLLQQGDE
Chain of TXK (human) (P42681 whole entry, looked up): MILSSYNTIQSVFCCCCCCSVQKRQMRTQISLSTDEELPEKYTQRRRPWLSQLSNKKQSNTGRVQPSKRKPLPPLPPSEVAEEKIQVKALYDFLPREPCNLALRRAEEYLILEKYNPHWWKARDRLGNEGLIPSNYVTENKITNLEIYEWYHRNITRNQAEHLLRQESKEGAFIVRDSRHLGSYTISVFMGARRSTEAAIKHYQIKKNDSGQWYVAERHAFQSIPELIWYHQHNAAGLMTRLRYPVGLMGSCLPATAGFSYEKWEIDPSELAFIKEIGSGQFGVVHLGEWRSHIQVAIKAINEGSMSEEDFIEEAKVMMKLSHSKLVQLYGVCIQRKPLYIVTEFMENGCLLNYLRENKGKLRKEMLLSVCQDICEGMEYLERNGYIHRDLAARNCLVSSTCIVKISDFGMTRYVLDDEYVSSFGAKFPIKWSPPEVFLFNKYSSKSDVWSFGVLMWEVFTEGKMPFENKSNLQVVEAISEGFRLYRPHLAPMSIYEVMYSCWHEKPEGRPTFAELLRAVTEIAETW
Chain of PHKG1 (human) (Q16816 whole entry, looked up): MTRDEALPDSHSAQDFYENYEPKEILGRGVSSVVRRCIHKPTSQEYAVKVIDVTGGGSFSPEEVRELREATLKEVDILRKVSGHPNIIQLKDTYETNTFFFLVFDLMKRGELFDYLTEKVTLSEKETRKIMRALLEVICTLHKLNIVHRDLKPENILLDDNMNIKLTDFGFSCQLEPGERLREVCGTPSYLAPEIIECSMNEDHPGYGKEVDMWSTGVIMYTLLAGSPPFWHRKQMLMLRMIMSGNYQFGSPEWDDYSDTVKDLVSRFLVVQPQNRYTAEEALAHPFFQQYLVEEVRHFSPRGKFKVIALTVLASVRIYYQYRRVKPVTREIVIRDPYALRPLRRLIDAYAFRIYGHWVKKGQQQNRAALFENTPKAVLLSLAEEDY
Chain of MARK2 (human) (Q7KZI7 whole entry, looked up): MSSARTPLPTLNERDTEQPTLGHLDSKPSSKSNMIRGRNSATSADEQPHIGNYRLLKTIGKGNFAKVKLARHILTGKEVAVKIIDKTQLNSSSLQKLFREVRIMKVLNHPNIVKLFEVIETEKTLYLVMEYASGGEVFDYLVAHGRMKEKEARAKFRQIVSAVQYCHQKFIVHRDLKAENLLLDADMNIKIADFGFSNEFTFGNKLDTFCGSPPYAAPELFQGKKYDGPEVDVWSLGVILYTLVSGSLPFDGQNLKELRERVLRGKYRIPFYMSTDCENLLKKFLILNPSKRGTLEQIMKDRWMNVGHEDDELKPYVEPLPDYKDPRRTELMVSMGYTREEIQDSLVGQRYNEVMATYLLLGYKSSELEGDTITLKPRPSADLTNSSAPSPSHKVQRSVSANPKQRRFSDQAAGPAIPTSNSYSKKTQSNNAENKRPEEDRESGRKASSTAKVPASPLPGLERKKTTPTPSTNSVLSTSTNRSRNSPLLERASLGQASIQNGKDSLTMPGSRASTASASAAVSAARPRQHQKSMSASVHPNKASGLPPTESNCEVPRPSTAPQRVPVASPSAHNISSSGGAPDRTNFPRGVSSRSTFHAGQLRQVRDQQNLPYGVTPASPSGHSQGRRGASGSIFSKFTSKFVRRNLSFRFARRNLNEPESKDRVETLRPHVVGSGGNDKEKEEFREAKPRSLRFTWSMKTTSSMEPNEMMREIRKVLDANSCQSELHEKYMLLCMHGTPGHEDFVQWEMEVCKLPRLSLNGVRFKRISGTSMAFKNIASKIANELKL
Chain of FRK (human) (P42685 whole entry, looked up): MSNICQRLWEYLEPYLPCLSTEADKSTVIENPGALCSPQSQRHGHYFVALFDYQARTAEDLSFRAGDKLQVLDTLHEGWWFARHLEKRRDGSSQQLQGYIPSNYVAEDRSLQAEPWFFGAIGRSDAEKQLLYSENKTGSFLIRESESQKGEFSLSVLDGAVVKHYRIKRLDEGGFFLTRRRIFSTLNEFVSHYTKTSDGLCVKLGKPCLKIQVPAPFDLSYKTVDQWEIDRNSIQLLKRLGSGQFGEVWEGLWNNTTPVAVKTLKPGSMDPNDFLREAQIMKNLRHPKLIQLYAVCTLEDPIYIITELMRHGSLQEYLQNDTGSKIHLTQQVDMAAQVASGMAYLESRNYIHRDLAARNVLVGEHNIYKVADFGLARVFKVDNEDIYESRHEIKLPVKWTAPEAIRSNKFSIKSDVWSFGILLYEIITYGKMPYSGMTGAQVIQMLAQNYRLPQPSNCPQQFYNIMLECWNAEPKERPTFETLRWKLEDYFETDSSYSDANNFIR
Chain of TEK (human) (Q02763 whole entry, looked up): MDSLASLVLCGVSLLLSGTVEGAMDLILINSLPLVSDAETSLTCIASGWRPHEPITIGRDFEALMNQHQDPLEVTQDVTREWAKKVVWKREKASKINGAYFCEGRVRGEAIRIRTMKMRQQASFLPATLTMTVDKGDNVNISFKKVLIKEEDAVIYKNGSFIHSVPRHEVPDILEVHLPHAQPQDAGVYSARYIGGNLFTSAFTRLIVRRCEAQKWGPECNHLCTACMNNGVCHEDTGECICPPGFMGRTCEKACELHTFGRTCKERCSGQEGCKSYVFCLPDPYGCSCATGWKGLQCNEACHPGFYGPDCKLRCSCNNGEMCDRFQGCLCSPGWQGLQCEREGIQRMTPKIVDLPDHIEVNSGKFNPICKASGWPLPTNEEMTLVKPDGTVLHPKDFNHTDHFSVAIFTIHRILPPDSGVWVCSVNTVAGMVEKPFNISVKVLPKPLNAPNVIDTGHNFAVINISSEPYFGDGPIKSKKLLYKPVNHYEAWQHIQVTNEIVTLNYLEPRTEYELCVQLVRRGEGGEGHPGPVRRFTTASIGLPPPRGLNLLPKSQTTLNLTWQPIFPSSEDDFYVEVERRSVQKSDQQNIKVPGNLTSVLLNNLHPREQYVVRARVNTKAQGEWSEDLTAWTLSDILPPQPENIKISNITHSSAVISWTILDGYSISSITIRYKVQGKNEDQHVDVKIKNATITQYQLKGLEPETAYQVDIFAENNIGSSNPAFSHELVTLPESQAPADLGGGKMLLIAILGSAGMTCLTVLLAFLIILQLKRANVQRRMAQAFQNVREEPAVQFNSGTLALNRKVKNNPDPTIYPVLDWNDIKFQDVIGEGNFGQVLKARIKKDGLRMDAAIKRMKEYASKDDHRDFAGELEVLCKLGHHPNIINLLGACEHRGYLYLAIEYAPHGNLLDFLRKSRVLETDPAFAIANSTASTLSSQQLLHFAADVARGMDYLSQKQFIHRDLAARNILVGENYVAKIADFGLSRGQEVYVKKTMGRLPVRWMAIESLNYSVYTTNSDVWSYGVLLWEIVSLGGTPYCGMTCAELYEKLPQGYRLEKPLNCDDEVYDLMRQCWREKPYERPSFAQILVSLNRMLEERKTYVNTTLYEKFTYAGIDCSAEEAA
Chain of CDK1 CCNB1 (human) (P06493 whole entry, looked up): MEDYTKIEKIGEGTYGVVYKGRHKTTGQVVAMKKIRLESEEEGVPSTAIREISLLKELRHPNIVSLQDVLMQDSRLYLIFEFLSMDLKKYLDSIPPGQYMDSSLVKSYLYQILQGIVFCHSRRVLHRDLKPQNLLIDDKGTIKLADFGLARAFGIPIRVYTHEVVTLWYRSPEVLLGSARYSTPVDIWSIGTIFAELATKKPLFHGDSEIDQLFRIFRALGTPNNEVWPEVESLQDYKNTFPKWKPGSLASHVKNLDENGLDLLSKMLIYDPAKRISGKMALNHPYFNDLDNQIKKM
Chain of CDK1 CCNB1 (human) (P14635 whole entry, looked up): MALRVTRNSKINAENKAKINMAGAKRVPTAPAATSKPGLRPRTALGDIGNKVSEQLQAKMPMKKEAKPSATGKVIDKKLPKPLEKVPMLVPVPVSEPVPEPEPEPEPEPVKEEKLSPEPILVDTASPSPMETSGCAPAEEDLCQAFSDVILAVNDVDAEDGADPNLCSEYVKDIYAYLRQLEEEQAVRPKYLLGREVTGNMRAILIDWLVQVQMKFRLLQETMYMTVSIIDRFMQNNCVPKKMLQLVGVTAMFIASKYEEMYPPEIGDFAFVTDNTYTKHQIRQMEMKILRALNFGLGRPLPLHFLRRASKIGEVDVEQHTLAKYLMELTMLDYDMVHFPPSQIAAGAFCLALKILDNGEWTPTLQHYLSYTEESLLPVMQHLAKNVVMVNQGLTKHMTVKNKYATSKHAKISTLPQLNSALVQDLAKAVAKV

SMILES	residual activity [1] [%]	residual activity [2] [%]	residual activity [3] [%]	residual activity [4] [%]	residual activity [5] [%]	residual activity [6] [%]	residual activity [7] [%]	residual activity [8] [%]	residual activity [9] [%]	residual activity [10] [%]	residual activity [11] [%]	residual activity [12] [%]	residual activity [13] [%]	residual activity [14] [%]	residual activity [15] [%]	residual activity [16] [%]	residual activity [18] [%]	residual activity [19] [%]	residual activity [20] [%]	residual activity [21] [%]	also measured
c1ccc(-c2n[nH]c3c2oc2ccccc23)cc1	104	101	106	92.4	96.4	97	87.7	101	86.4	91.5	96	95.4	93	99.7	78.6	104	123	102	104	94.8	residual activity [17]: 89.9%; residual activity [22]: 96.4%; residual activity [23]: 71.8%; residual activity [24]: 97.4%; residual activity [25]: 61.8%; residual activity [26]: 92.9%; residual activity [27]: 99.8%; residual activity [28]: 91.5%; residual activity [29]: 113%; residual activity [30]: 96.7%; residual activity [31]: 87.1%; residual activity [32]: 79.8%; residual activity [33]: 95%; residual activity [34]: 94.5%; residual activity [35]: 96.5%; residual activity [36]: 120%; residual activity [37]: 96.8%; residual activity [38]: 81.5%; residual activity [39]: 83.1%
COc1ccc(COc2ccc(Cc3cnc(N)nc3N)cc2OC)cc1	96.1	96.4	93.4	95.6	104	115	91.3	107	101	104	99.6	105	108	101	85.7	101	109	104	99.4	100	residual activity [40]: 96.9%; residual activity [22]: 98.6%; residual activity [23]: 81.8%; residual activity [24]: 89%; residual activity [25]: 120%; residual activity [27]: 99.2%; residual activity [28]: 95.3%; residual activity [29]: 110%; residual activity [30]: 87.8%; residual activity [31]: 93.4%; residual activity [32]: 105%; residual activity [33]: 87.4%; residual activity [34]: 102%; residual activity [35]: 96.4%; residual activity [36]: 87.6%; residual activity [37]: 101%; residual activity [38]: 101%; residual activity [39]: 91.4%
CC[n+]1c(/C=C/N(C)c2ccccc2)n(-c2ccccc2)c2ccc(-c3nc4ccccc4s3)cc21	87.5	101	108	101	91.6	115	105	105	101	95.4	97.4	105	98.7	107	77.1	97.9	109	100	101	90.7	residual activity [40]: 103%; residual activity [17]: 97.1%; residual activity [22]: 93.5%; residual activity [23]: 96%; residual activity [24]: 100%; residual activity [25]: 103%; residual activity [26]: 91.6%; residual activity [27]: 100%; residual activity [28]: 96.1%; residual activity [29]: 118%; residual activity [30]: 93.3%; residual activity [31]: 99.8%; residual activity [32]: 108%; residual activity [33]: 105%; residual activity [35]: 89.4%; residual activity [36]: 81.1%; residual activity [37]: 96%; residual activity [38]: 107%; residual activity [39]: 90.9%
CC#CC(=O)Nc1cc2c(Nc3ccc(F)c(Cl)c3)ncnc2cn1	98.3	100	2.54	102	2.88	124	99.5	98.8	94.9	97.8	108	91.3	101	98	88.3	91.3	105	106	101	93	residual activity [17]: 102%; residual activity [22]: 95.3%; residual activity [23]: 80.4%; residual activity [24]: 98.9%; residual activity [25]: 114%; residual activity [26]: 105%; residual activity [27]: 103%; residual activity [28]: 103%; residual activity [29]: 99.5%; residual activity [30]: 99.8%; residual activity [31]: 114%; residual activity [32]: 103%; residual activity [33]: 69.2%; residual activity [34]: 101%; residual activity [35]: 88.5%; residual activity [36]: 91.3%; residual activity [37]: 99.7%; residual activity [38]: 1.66%; residual activity [39]: 87.8%
O=S(=O)(c1cccc2cnccc12)N1CCCNCC1	105	97.2	104	97.5	96.5	108	92.7	98.9	93.7	93	92.2	97.9	89.1	97.9	79.9	97.3	109	114	99.7	95.2	residual activity [17]: 78.1%; residual activity [22]: 83%; residual activity [23]: 97.7%; residual activity [24]: 88.7%; residual activity [25]: 45.7%; residual activity [26]: 108%; residual activity [27]: 92.3%; residual activity [28]: 90.8%; residual activity [29]: 101%; residual activity [30]: 84.7%; residual activity [31]: 94.7%; residual activity [32]: 23.5%; residual activity [33]: 83.9%; residual activity [34]: 96.4%; residual activity [35]: 90.3%; residual activity [36]: 103%; residual activity [37]: 98.4%; residual activity [38]: 84.1%; residual activity [39]: 87.6%
